In US12358863B2, “Nitrogen-containing derivative of substituted phenol hydroxy acid ester, and preparation and use thereof” (priority 2019, dated 2025):
Read-outs that look alike come from different tables or passages of the source.

How the values were obtained:
[1] = system: Kunming mice; assay: Determination of therapeutic index (ED50 and LD50, up-and-down method); format: in vivo, mouse; settings: half male and half female
Experimental: Determination of therapeutic index (TI) of prodrug molecules: by referring the method in literature (Dixon, W. Staircase bioassay: the up-and-down method. Neurosci. Biobehav. Rev. 1991, 15, 47-50), the half-effective dose (ED50) and half-lethal dose (LD50) of the molecule to be tested were determined in Kunming mice (weighing 25-30 g, half male and half female). The therapeutic index for each molecule was calculated according to the equation: TI=LD50/ED50.

[2] = Decomposition of prodrugs in mouse plasma in vitro (HPLC of released propofol or other substituted phenol); format: in vitro ADME; settings: 37° C.
Experimental: The prodrug to be tested was prepared into a saline solution of 10 mg/mL. 10 μL of drug-containing solution was added to 990 μL of mouse plasma, vortexed for 30 s, and then incubated at 37° C. At 30 s, 1 min, 5 min, 10 min, 30 min, 60 min and 120 min, 50 μL of drug-containing plasma was collected, to which was immediately added 150 μL of acetonitrile to terminate the enzymatic reaction, and then centrifuged at 20000 rpm and 4° C. for 10 min. 50 μL of supernatant was taken out and injected into HPLC, to determine the concentration of propofol by internal standard method. The decomposition rate of the prodrug was calculated from the concentrations of propofol or other substituted phenols. Chromatographic conditions: Agilent Zorbax XdB C18 column (150 mm)×4.6 mm, 5 μm); column temperature 30° C.; the mobile phase, water:acetonitrile (40:60, v/v); fluorescence wavelength: excitation wavelength (Ex) at 276 nm, emission wavelength (EM) at 310 nm; flow rate: 1.2 mL/min; retention time: internal standard (thymol) 3.9 min, propofol 7.4 min. Linear range of propofol or other substituted phenols: 50-35000 ng/mL. Instruments: Waters 2695 high performance liquid chromatograph, Waters 2475 fluorescence detector.

[3] = system: Kunming mice; format: in vivo, mouse
Experimental: For each drug, 10 male Kunming mice weighing 20-35 g were included, and the dose of each drug was 2×ED50 in mice. After the compound of the present invention and fospropofol were respectively dissolved in saline, the resultant solutions were injected via the mouse tail vein. For propofol, a glucose dilution (5 mg/mL) of a commercially available emulsion of diprivan was selected and injected via the mouse tail vein; while, for another substituted phenol molecule (CAS:1637741-58-2), its 30% fat emulsion was prepared as a medicated emulsion. The concentration of the injectable solution of the compound according to the present invention was 10-15 mg/mL, and the concentration of the injectable solution of fospropofol was 55 mg/mL, while the concentration of the injectable solution of another substituted phenol molecule (CAS:1637741-58-2) was 1 mg/mL. After injection of tested drug, the occurrence time T1 of righting reflex after its disappearance, the duration T2 for the disappearance of righting reflex (i.e. anesthesia time) and the time T3 required for the animal to recover completely after waking up were recorded. Complete recovery refers to the recovery of autonomous activities of animals to the level before administration. In the experiment, animals were not given respiratory support such as oxygen inhalation or intubation.

[4] = Table 3, dose 2×ED50, tail vein injection, male Kunming mice
[5] = Table 4 (other substituted phenols and prodrugs), dose 2×ED50, tail vein injection, male Kunming mice

In the case of CC(C)C[C@@H](N)C(=O)OCC(=O)Oc1c(C(C)C)cccc1C(C)C.Cl [Compound 48], the “TI (therapeutic index)” value [1] is reported as 4.1, the “Decomposition rates of prodrugs” value ([2]; 30 s) is reported as 92% and the “Decomposition rates of prodrugs” value ([2]; 1 min) is reported as 100%. The “Decomposition rates of prodrugs” value ([2]; 5 min) was 100%, the “Decomposition rates of prodrugs” value ([2]; 10 min) was 100% and the “Decomposition rates of prodrugs” value ([2]; 30 min) was 100%. The “Decomposition rates of prodrugs” value ([2]; 60 min) was 100%, the “Decomposition rates of prodrugs” value ([2]; 120 min) was 100% and the “T1: the onset time after injection” value [3, 4] was “Immediate”. For the same compound, the “T2: the duration of disappearance of righting reflex” value (“T2: the duration” for short) [3, 4] was 6 to 14 min and the “T3: the time required for righting reflex to recover to autonomous activity” value (shortened to “T3: the time required”) [3, 4] was 1 to 2 min.

With CC(C)c1cccc(C(C)C)c1OC(=O)COC(=O)CN1CCOCC1 [Compound 22] the “TI (therapeutic index)” value [1] was 4.7, the “Decomposition rates of prodrugs” value ([2]; 30 s) was 58% and the “Decomposition rates of prodrugs” value ([2]; 1 min) was 66%. For the same compound, the “Decomposition rates of prodrugs” value ([2]; 5 min) was 80%, the “Decomposition rates of prodrugs” value ([2]; 10 min) was 89% and the “Decomposition rates of prodrugs” value ([2]; 30 min) was 100%. For the same compound, the “Decomposition rates of prodrugs” value ([2]; 60 min) was 100%, the “Decomposition rates of prodrugs” value ([2]; 120 min) was 100% and the “T3: the time required” value [3, 4] was 1 to 2 min. For the same compound, the “T1: the onset time after injection” value ([3]; mouse, in vivo) was “Immediate” and the “T2: the duration” value ([3]; mouse, in vivo) was 4.5 to 10.5 min.

In the case of CNCC(=O)OCC(=O)Oc1c(C(C)C)cccc1C(C)C [Compound 2], the “Decomposition rates of prodrugs” value ([2]; 30 s) is reported as 87%, the “Decomposition rates of prodrugs” value ([2]; 1 min) is reported as 98% and the “Decomposition rates of prodrugs” value ([2]; 5 min) is reported as 100%. The “Decomposition rates of prodrugs” value ([2]; 10 min) was 100%, the “Decomposition rates of prodrugs” value ([2]; 30 min) was 100% and the “Decomposition rates of prodrugs” value ([2]; 60 min) was 100%. For the same compound, the “Decomposition rates of prodrugs” value ([2]; 120 min) was 100%, the “T1: the onset time after injection” value ([3]; mouse, in vivo) was “Immediate” and the “T2: the duration” value ([3]; mouse, in vivo) was 7 to 15 min. The “T3: the time required” value ([3]; mouse, in vivo) was 1 to 2 min.

For CC(C)c1cccc(C(C)C)c1OC(=O)COC(=O)CN(C)C [Compound 3], the “Decomposition rates of prodrugs” value ([2]; 30 s) was 51%, the “Decomposition rates of prodrugs” value ([2]; 1 min) was 67% and the “Decomposition rates of prodrugs” value ([2]; 5 min) was 80%. The “Decomposition rates of prodrugs” value ([2]; 10 min) was 90%, the “Decomposition rates of prodrugs” value ([2]; 30 min) was 97% and the “Decomposition rates of prodrugs” value ([2]; 60 min) was 100%. For the same compound, the “Decomposition rates of prodrugs” value ([2]; 120 min) was 100%, the “T1: the onset time after injection” value ([3]; mouse, in vivo) was “Immediate” and the “T2: the duration” value ([3]; mouse, in vivo) was 5 to 10 min. The “T3: the time required” value ([3]; mouse, in vivo) was 1 to 2 min.

With CC(C)c1cccc([C@H](C)C2CC2)c1OC(=O)COC(=O)CN1CCCCC1.Cl [Compound 53] the “T1: the onset time after injection” value [3, 5] was “Immediate”, the “T2: the duration” value [3, 5] was 5 to 8.5 min and the “T3: the time required” value [3, 5] was 1 to 2 min.

For CC(C)c1cccc(C(C)C)c1OC(=O)COC(=O)CN1CCN(C)CC1 [Compound 7], the “TI (therapeutic index)” value [1] was 3.9, the “Decomposition rates of prodrugs” value ([2]; 30 s) was 91% and the “Decomposition rates of prodrugs” value ([2]; 1 min) was 100%. The “Decomposition rates of prodrugs” value ([2]; 5 min) was 100%, the “Decomposition rates of prodrugs” value ([2]; 10 min) was 100% and the “Decomposition rates of prodrugs” value ([2]; 30 min) was 100%. For the same compound, the “Decomposition rates of prodrugs” value ([2]; 60 min) was 100%, the “Decomposition rates of prodrugs” value ([2]; 120 min) was 100% and the “T3: the time required” value [3, 4] was 1 to 2 min. For the same compound, the “T1: the onset time after injection” value ([3]; mouse, in vivo) was “Immediate” and the “T2: the duration” value ([3]; mouse, in vivo) was 6 to 13 min.

With CC(C)c1cccc([C@H](C)C2CC2)c1O [(R)-2-cyclopropylethyl-6-isopropylphenol, reference compound] the “T1: the onset time after injection” value [3, 5] was “Immediate”, the “T2: the duration” value [3, 5] was 5 to 8 min and the “T3: the time required” value [3, 5] was 1 to 2 min.

For CC(C)c1cccc([C@@H](C)C2CC2)c1OC(=O)COC(=O)CN1CCCC1.Cl [Compound 55], the “T1: the onset time after injection” value [3, 5] was “Immediate”, the “T2: the duration” value [3, 5] was 5 to 9 min and the “T3: the time required” value [3, 5] was 1 to 2 min.

In the case of CC(C)c1cccc([C@H](C)C2CC2)c1OC(=O)COC(=O)CN1CCOCC1.Cl [Compound 17], the “Decomposition rates of prodrugs” value ([2]; 30 s) is reported as 55%, the “Decomposition rates of prodrugs” value ([2]; 1 min) is reported as 63% and the “Decomposition rates of prodrugs” value ([2]; 5 min) is reported as 78%. The “Decomposition rates of prodrugs” value ([2]; 10 min) was 85%, the “Decomposition rates of prodrugs” value ([2]; 30 min) was 100% and the “Decomposition rates of prodrugs” value ([2]; 60 min) was 100%. For the same compound, the “Decomposition rates of prodrugs” value ([2]; 120 min) was 100%, the “T1: the onset time after injection” value [3, 5] was “Immediate” and the “T2: the duration” value [3, 5] was 5.5 to 8 min. The “T3: the time required” value [3, 5] was 1 to 2 min.

In the case of CC(C)c1cccc(C(C)C)c1OC(=O)COC(=O)[C@H](C)N [Compound 4], the “Decomposition rates of prodrugs” value ([2]; 30 s) is reported as 94%, the “Decomposition rates of prodrugs” value ([2]; 1 min) is reported as 100% and the “Decomposition rates of prodrugs” value ([2]; 5 min) is reported as 100%. The “Decomposition rates of prodrugs” value ([2]; 10 min) was 100%, the “Decomposition rates of prodrugs” value ([2]; 30 min) was 100% and the “Decomposition rates of prodrugs” value ([2]; 60 min) was 100%. For the same compound, the “Decomposition rates of prodrugs” value ([2]; 120 min) was 100%, the “T1: the onset time after injection” value [3, 4] was “Immediate” and the “T2: the duration” value [3, 4] was 5 to 13 min. For the same compound, the “T3: the time required” value [3, 4] was 1 to 2 min.

With CC(C)c1cccc(C(C)C)c1O [Propofol, reference compound] the “TI (therapeutic index)” value [1] was 4.4, the “T1: the onset time after injection” value ([3]; mouse, in vivo) was “Immediate” and the “T2: the duration” value ([3]; mouse, in vivo) was 5 to 11.5 min. The “T3: the time required” value ([3]; mouse, in vivo) was 1 to 2 min.

With CC(C)c1cccc([C@H](C)C2CC2)c1OC(=O)COC(=O)CN1CCOCC1 [Compound 19] the “T1: the onset time after injection” value [3, 5] was “Immediate”, the “T2: the duration” value [3, 5] was 5.5 to 9 min and the “T3: the time required” value [3, 5] was 1 to 2 min.

With CC(C)c1cccc(C(C)C)c1OC(=O)COC(=O)CN [Compound 1] the “Decomposition rates of prodrugs” value ([2]; 30 s) was 97%, the “Decomposition rates of prodrugs” value ([2]; 1 min) was 100% and the “Decomposition rates of prodrugs” value ([2]; 5 min) was 100%. For the same compound, the “Decomposition rates of prodrugs” value ([2]; 10 min) was 100%, the “Decomposition rates of prodrugs” value ([2]; 30 min) was 100% and the “Decomposition rates of prodrugs” value ([2]; 60 min) was 100%. The “Decomposition rates of prodrugs” value ([2]; 120 min) was 100%, the “T1: the onset time after injection” value ([3]; mouse, in vivo) was “Immediate” and the “T2: the duration” value ([3]; mouse, in vivo) was 6 to 12 min. For the same compound, the “T3: the time required” value ([3]; mouse, in vivo) was 1 to 2 min.
